This passage reports IC50 results from ChEMBL document CHEMBL5604063, “ASAP - DENV-2 NS2B-NS3 protease fluorescence dose response” (2024).

Values joined by “and” are separate entries in the source; they are usually repeats but may differ in a detail not shown here. Equal entries are not always repeated.

Sequence of Genome polyprotein (P29990 1346-1475 limits assumed): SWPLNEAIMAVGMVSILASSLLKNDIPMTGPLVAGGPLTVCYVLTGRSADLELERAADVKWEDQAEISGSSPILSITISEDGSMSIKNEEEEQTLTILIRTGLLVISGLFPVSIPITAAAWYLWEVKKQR
Sequence of Genome polyprotein (P29990 1476-2093 limits assumed): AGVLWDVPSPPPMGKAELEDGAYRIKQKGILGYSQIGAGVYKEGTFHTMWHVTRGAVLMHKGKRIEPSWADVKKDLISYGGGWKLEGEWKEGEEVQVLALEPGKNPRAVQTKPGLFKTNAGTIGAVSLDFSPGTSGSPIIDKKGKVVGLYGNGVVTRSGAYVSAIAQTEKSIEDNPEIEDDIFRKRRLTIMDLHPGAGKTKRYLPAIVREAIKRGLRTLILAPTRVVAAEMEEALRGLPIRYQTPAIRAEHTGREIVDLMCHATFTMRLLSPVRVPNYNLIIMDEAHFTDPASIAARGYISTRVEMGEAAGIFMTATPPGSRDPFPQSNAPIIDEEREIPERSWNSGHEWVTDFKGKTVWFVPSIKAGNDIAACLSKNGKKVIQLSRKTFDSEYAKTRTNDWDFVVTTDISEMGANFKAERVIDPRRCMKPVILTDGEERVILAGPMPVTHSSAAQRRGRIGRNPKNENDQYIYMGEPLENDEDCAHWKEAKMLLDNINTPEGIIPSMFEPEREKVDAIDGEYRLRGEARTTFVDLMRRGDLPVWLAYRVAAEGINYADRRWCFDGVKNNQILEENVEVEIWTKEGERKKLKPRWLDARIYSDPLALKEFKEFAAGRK

This assay addresses Genome polyprotein (dengue virus type 2, UniProt P29990). It is filed as functional, Thailand/16681/1984.
Take `O=C(O)c1cc(Cl)ccc1S(=O)(=O)NC1CCN(Cc2ccc(F)c(F)c2)CC1`: the IC50 is > 99.5 µM. Consider `O=C(O)c1cc(Cl)ccc1S(=O)(=O)NC1CCN(c2ccc(C(F)(F)F)cn2)CC1`, for which the IC50 was > 99.5 µM. Then `O=C(O)Cc1cc(NS(=O)(=O)c2ccc(Oc3ccccc3Cl)cc2)ccc1Cl`, with 96.1 µM; and `NCc1cccc(NC(=O)[C@H](NS(=O)(=O)C2CCCCC2)c2ccc(OCc3ccccc3)cc2)c1`, with > 99.5 µM. Then `COc1ccc(N2CCC(NS(=O)(=O)c3ccc(Cl)cc3C(=O)O)CC2)cc1`, with > 99.5 µM; and `COc1ccc(NS(=O)(=O)c2ccc(Cl)cc2C(=O)O)cc1-n1nnnc1C`, with > 99.5 µM.

Regarding `NCc1cccc(NC(=O)[C@H](NC(=O)Cc2ccccc2)c2ccc(OCc3ccccc3)cc2)c1`, the IC50 is 32.8 µM and 32.1 µM. In the case of `O=C(O)c1cc(Cl)ccc1NS(=O)(=O)c1ccc(-c2ccccc2Cl)cc1` it was 6.93 µM; in that of `Cn1ccnc(N2CCC(NS(=O)(=O)c3ccc(Cl)cc3C(=O)O)CC2)c1=O`, > 99.5 µM; in that of `COc1ncccc1-c1cccc([C@H](NC(=O)OCc2ccccc2)C(=O)Nc2cccc(CN)c2)c1`, > 99.5 µM. Then `O=C(O)c1cc(Cl)ccc1S(=O)(=O)Nc1ccc(CCN2CCCC2)cc1`, with > 99.5 µM; and `Cc1cc(N2CCCCC2)ccc1NS(=O)(=O)c1ccc(Cl)cc1C(=O)O`, with > 99.5 µM; and `COc1ccc(NS(=O)(=O)c2ccc(Cl)cc2C(=O)O)cc1N1CCCC1=O`, with > 99.5 µM. Take `O=C(O)c1cc(Cl)ccc1S(=O)(=O)Nc1ccc(F)c(N2CCNC2=O)c1`: the IC50 is > 99.5 µM. As to `O=C(O)c1cc(Cl)ccc1NS(=O)(=O)c1ccc(-c2ccccc2F)cc1`, the concentration for half-maximal inhibition (IC50) amounted to 10.1 µM. Then `O=C(Cn1ccnc(N2CC[C@H](CO)C2)c1=O)Nc1ccccc1`, with > 99.5 µM; and `O=C(O)c1cc(Cl)ccc1S(=O)(=O)Nc1ccc(N2CCCCC2)c(F)c1`, with > 99.5 µM. Then `Cc1ccc(S(=O)(=O)N2CCC(NS(=O)(=O)c3ccc(Cl)cc3C(=O)O)CC2)cc1`, with > 99.5 µM; and `CC(C)(C)OC(=O)NCc1cccc(NC(=O)[C@H](NC(=O)OCc2ccccc2)C2CCNCC2)c1`, with > 99.5 µM; and `NCc1cccc(NC(=O)[C@H](NC(=O)CCc2ccccc2)c2ccc(OCc3ccccc3)cc2)c1`, with 14.5 µM and 23.3 µM and 22.9 µM. Then `O=C(O)c1cc(Cl)ccc1S(=O)(=O)NC1CCN(CC2CCOCC2)CC1`, with > 99.5 µM; and `NCc1cccc(NC(=O)c2cc(NC(=O)OCc3ccccc3)cc3c2OC(F)(F)O3)c1`, with > 99.5 µM; and `O=C(O)c1cc(Cl)ccc1S(=O)(=O)Nc1ccc(N2CCCCCC2)cc1`, with 55.2 µM. `CCOc1cc(N2CCN(C)CC2)ccc1NS(=O)(=O)c1ccc(Cl)cc1C(=O)O`: the IC50 is > 99.5 µM. Then `O=C(O)c1cc(Cl)c(F)cc1S(=O)(=O)Nc1ccc(Oc2ccccc2Cl)cc1`, with 11.2 µM and 10.7 µM. In the case of `NCc1ccc(NC(=O)c2cc(Cl)cc(NC(=O)OCc3ccccc3)c2)cc1` it was 51.5 µM; in that of `O=C(O)c1cc(Cl)ccc1NS(=O)(=O)c1ccc(-c2cccc(F)c2F)cc1`, 8.82 µM; in that of `CCN1C(=O)CCc2cc(NS(=O)(=O)c3ccc(Cl)cc3C(=O)O)ccc21`, > 99.5 µM. Then `CN(C(=O)OCc1ccccc1)[C@H](C(=O)Nc1cccc(CN)c1)c1ccc(OCc2ccccc2)cc1`, with 43.8 µM; and `O=C(O)c1cc(Cl)ccc1S(=O)(=O)N[C@H]1CCN(Cc2ccccc2)C2(CC2)C1`, with > 99.5 µM; and `CS(=O)(=O)c1ccc(-c2cccc([C@H](NC(=O)OCc3ccccc3)C(=O)Nc3cccc(CN)c3)c2)cn1`, with > 99.5 µM. As to `O=C(O)c1cc(Cl)ccc1S(=O)(=O)NC1CCN(C(=O)c2ccccc2C(F)(F)F)CC1`, the half-maximal inhibitory concentration (IC50) was > 99.5 µM. Then `NCc1ccccc1NC(=O)c1cc(Cl)cc(NC(=O)OCc2ccccc2)c1`, with > 99.5 µM; and `NCc1cccc(NC(=O)c2cc(Br)cc(NC(=O)OCc3ccccc3)c2)c1`, with 54.3 µM; and `O=C(O)c1cc(Cl)ccc1S(=O)(=O)Nc1nn(Cc2ccccc2)cc1Cl`, with > 99.5 µM.
